Measurements reported in PMC8562773, “Perfluoroalkyl Carboxylic Acids Interact with the Human Bile Acid Transporter NTCP” (Livers, 2021).
Where “and” joins values, the source holds several entries; their conditions need not be identical. Equal values may be shown once. Read-outs that look alike come from different tables or passages of the source.

Legend:
[1] = target: T1, human Na+/taurocholate cotransporting polypeptide (NTCP) (Homo sapiens, UniProt Q14973); assay: Inhibition of NTCP-mediated [3H]-taurocholate uptake in NTCP-expressing HEK293 cells; format: cell-based; settings: for IC50 / inhibition of NTCP-mediated taurocholate uptake: 1 μM [3H]-taurocholate, 1 min, 37 °C; for IC50: sodium-containing buffer, 3 independent experiments; for inhibition of NTCP-mediated taurocholate uptake / statistically significant inhibition of taurocholate uptake: 10 μM PFCA; for inhibition of NTCP-mediated taurocholate uptake: NTCP-HEK293; for statistically significant inhibition of taurocholate uptake: 1 μM taurocholate, p < 0.05 vs control
T1 construct: containing the human NTCP open reading frame with a C-terminal 6-His tag; expressed in transfected cells
T1 sequence (Q14973 1-349): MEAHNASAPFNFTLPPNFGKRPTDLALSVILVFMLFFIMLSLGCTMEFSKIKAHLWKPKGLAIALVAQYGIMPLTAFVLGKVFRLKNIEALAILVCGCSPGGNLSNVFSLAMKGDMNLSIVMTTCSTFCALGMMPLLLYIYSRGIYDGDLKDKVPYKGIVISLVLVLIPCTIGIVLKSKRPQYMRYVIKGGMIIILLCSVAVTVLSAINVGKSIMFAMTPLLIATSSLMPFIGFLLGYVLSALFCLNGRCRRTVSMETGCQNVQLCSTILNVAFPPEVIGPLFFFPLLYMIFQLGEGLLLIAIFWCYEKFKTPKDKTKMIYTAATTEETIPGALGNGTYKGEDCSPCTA
Description: (§1) Flp-In™-293 (HEK293) cells were purchased from Thermo Fisher Scientific (Waltham, MA, USA) and grown at 37 °C in a humidified 5% CO2 atmosphere in Dulbecco’s Modified Eagle’s Medium (DMEM) obtained from the American Type Culture Collection (ATCC, Manassas, VA, USA: 30-2002). The medium was supplemented with 10% fetal bovine serum (FBS) (Hyclone, Logan, UT, USA), and 100 U/mL penicillin, 100 μg/mL streptomycin (Thermo fisher Scientific). The pcDNA5/FRT plasmid containing the human NTCP open reading frame with a C-terminal 6-His tag was used to generate a stable NTCP-expressing cell line using hygromycin selection. A single clone was isolated using a cloning cylinder and cultivated in the above DMEM with the addition of 500 μg/mL hygromycin (Thermo Fisher Scientific). For transport experiments, cells were plated on poly-D-lysine-coated 24-well plates at 300,000 cells per well for uptake experiments after 48 h or at 200,000 cells per well for uptake experiments after 72 h. Uptake experiments and LC-MS/MS analysis were performed at the time points indicated in the figure legends as previously described.
To investigate whether PFCAs would interact with the human Na^+/taurocholate cotransporting polypeptide (NTCP), we determined to what extent perfluorinated carboxylic acids with chain lengths from 3 to 18 carbon atoms (C3 to C18) would inhibit NTCP-mediated taurocholate uptake. For these experiments, we measured the uptake of 1 μM taurocholate in the presence and absence of 10 or 100 μM of each of the PFCAs.
Figure 1. […] Uptake was measured in sodium-containing (NaCl) or sodium-free (ChCl) buffer for 1 min at 37 °C and corrected for protein. Uptake then was normalized to control (NaCl) and individual values of 1 or 2 experiments performed in triplicates are presented. Bars represent the mean ± SD, asterisks indicate significant differences to the control (NaCl) at p < 0.05.
For these experiments, NTCP-mediated uptake of 1 μM taurocholate was measured in the absence and presence of increasing concentrations of perfluorinated compounds. For PFOA and PFNA, the concentrations ranged from 0.1 to 1000 μM, while the concentrations for PFDA were between 0.1 and 100 μM, due to solubility limitations.
Figure 2. […] Uptake of 1 μM [^3H]-taurocholate was measured into NTCP-expressing HEK293 cells in the absence or presence of increasing concentrations of (A) perfluorooctanoic acid (PFOA), (B) perfluorononanoic acid (PFNA), or (C) perfluorodecanoic acid (PFDA). Uptake was measured for 1 min at 37 °C in a sodium-containing buffer and corrected for protein. After conversion of the data to percent of control, IC50 values were calculated using GraphPad Prism V9 using the “One site-Fit logIC50” equation from 3 independent experiments performed in triplicates. The 95% confidence intervals are given in parentheses.

[2] = target: T1, human Na+/taurocholate cotransporting polypeptide (NTCP); assay: Inhibition kinetics of NTCP-mediated taurocholate transport in NTCP-expressing HEK293 cells; format: cell-based; settings: for type of inhibition of NTCP-mediated taurocholate uptake: inhibition kinetics, best fit
Description: as §1
Figure 3. Kinetics of taurocholate uptake in the absence and presence of PFOA, PFNA, and PFDA. Uptake of increasing concentrations of [^3H]-taurocholate into NTCP-expressing HEK293 cells was measured for 15 s (within the initial linear rate) at 37 °C in a sodium-containing buffer in the absence or presence of 10 and 100 μM of (A) PFOA, (B) PFDA, or (C) PFNA. After correction for protein, the results were analyzed using GraphPad Prism V9 using the “Enzyme kinetics–Inhibition” equations. […] Mean ± SD values of two independent experiments performed in triplicate are shown.

human NTCP = target: T2, human NTCP (Homo sapiens, UniProt Q14973); assay: Sodium-dependent NTCP-mediated uptake of PFCAs into NTCP-expressing HEK293 cells (LC-MS/MS); format: in vitro ADME; settings: for transport by NTCP (substrate, words): sodium-dependent uptake in NTCP-HEK293
T2 construct: containing the human NTCP open reading frame with a C-terminal 6-His tag; expressed in transfected cells
T2 sequence (Q14973 1-349): T1 sequence (Q14973 1-349)
Description: as §1
To resolve whether PFOA, PFNA, and PFDA were substrates of NTCP, we measured the transport of these compounds. […] To better characterize this transport, we wanted to perform kinetics experiments and determine the Km and Vmax values for the three compounds. Therefore, in Figure 4, we determined the initial linear rate conditions in which to perform the kinetics experiments. We evaluated the time-dependent uptake of PFOA, PFNA, and PFDA at 10 and 300 μM in NTCP-expressing HEK293 cells in sodium-containing and sodium-free buffer. While there is a time-dependent uptake of all three PFCAs, most likely due to organic anion transporters expressed in HEK293 cells, NTCP only transports its substrates in the presence of sodium. Therefore, we calculated the net sodium-dependent uptake. Based on the time-dependent sodium-dependent uptake results shown in Figure 4, we used 20 s for PFOA (Figure 4A), 30 s for PFNA (Figure 4B), and 1 min for PFDA (Figure 4C) to perform the concentration-dependent uptake kinetics.
Figure 4. Time dependency of NTCP-mediated PFOA, PFNA, and PFDA uptake. Uptake of (A) perfluorooctanoic acid (PFOA), (B) perfluorononanoic acid (PFNA), or (C) perfluorodecanoic acid (PFDA) was measured in NTCP-expressing HEK293 cells in sodium-containing (NaCl; solid lines) or sodium-free (ChCl; dotted lines) buffer at the indicated times at 37 °C and corrected for protein. The net sodium-dependent uptake (net; dashed lines) is also shown. The results are presented as means ± SD of two combined independent experiments performed in triplicates.
For the concentration-dependent uptake of […], we were limited by solubility and could only determine uptake up to a concentration of 1 mM. […] Therefore, no kinetic constants could be calculated for PFDA.
Figure 5. Kinetics of NTCP-mediated PFOA and PFNA uptake. Uptake of increasing concentrations of (A) perfluorooctanoic acid (PFOA) or (B) perfluorononanoic acid (PFNA) was measured at 37 °C for 20 (PFOA) or 30 s (PFNA) in NTCP-expressing HEK293 cells in sodium-containing or sodium-free buffer and corrected for protein. Net uptake was calculated by subtracting uptake in the sodium-free medium from uptake in the sodium-containing medium. Values are mean ± SD of three independent experiments parformed in triplicates. Curves were fit using the Michaelis–Menten equation in GraphPad Prism V9.

NTCP = system: NTCP; design: method as in PMID 26001962; settings: perfluoroalkyl sulfonates, previously obtained; cited from earlier work
[3] = humans; cited from earlier work
[4] = design: method as in PMID 33201517, PMID 18353799; settings: laboratory rodents; cited from earlier work
[5] = design: method as in PMID 33201517; settings: laboratory mice and non-human primates; cited from earlier work
[6] = competitive inhibition fit, taurocholate uptake 15 s, 37 °C, 0, 10 and 100 μM PFCA, table: 95% CI in parentheses, read-out: Ki
[7] = in presence of 10 μM PFCA, 95% CI in parentheses
[8] = in presence of 100 μM PFCA, 95% CI in parentheses

O=C(O)C(F)(F)C(F)(F)C(F)(F)C(F)(F)C(F)(F)C(F)(F)C(F)(F)C(F)(F)F [PFNA, perfluorononanoic acid]
IC50 [1]: 7.5 µM
inhibition of NTCP-mediated taurocholate uptake [1]: 60–70%
Ki [2, 6]: 12.3 µM and 12 µM
Vmax of taurocholate uptake [2, 7]: 3.5 (3.2–3.7) nmol/mg·min
Vmax of taurocholate uptake [2, 8]: 3.1 (2.5–4.1) nmol/mg·min
type of inhibition of NTCP-mediated taurocholate uptake [2]: competitive inhibitors
Vmax of sodium-dependent NTCP-mediated PFCA uptake (human NTCP; net sodium-dependent uptake, 37 °C, 20 s (PFOA) or 30 s (PFNA)): 670 ± 391 nmol/mg/min
Km (human NTCP; net sodium-dependent uptake, 37 °C, 20 s (PFOA) or 30 s (PFNA), PFNA value a rough estimate, saturation not reached, read-out: Km of sodium-dependent NTCP-mediated PFCA uptake): 5300 ± 3500 µM
transport by NTCP (substrate, words) (human NTCP): can transport

O=S(=O)(O)C(F)(F)C(F)(F)C(F)(F)C(F)(F)C(F)(F)C(F)(F)F [PFHxS, perfluorohexane sulfonate]
Km (NTCP): 112 µM

C[C@H](CCC(=O)NCCS(=O)(=O)O)[C@H]1CC[C@H]2[C@@H]3[C@H](O)C[C@@H]4C[C@H](O)CC[C@]4(C)[C@H]3C[C@H](O)[C@]12C [taurocholate, reference compound]
Vmax of taurocholate uptake ([2]; concentration of PFCA 0 (control of each PFCA series), 95% CI in parentheses): 2.9 (2.7–3.2) nmol/mg·min and 3.2 (2.9–3.4) nmol/mg·min and 3.5 (3.2–3.8) nmol/mg·min
Km ([2]; concentration of PFCA 0 (control of each PFCA series), 95% CI in parentheses, read-out: Km of taurocholate uptake): 12 µM and 16 µM

O=C(O)C(F)(F)C(F)(F)C(F)(F)F [PFBA, perfluorobutanoic acid]
serum elimination half-life [3]: a few days
serum elimination half-life [4]: a few hours

O=C(O)C(F)(F)C(F)(F)C(F)(F)C(F)(F)C(F)(F)C(F)(F)C(F)(F)F [PFOA, perfluorooctanoic acid]
IC50 [1]: 28 µM
statistically significant inhibition of taurocholate uptake [1]: statistically significant inhibitors at 10 μM, but to a lesser extent
Ki [2]: 17 µM
Vmax of taurocholate uptake [2, 7]: 3.0 (2.8–3.2) nmol/mg·min
Vmax of taurocholate uptake [2, 8]: 2.8 (2.6–3.1) nmol/mg·min
type of inhibition of NTCP-mediated taurocholate uptake [2]: competitive inhibitors
serum elimination half-life [5]: days to weeks
Ki value lower than Km value (human NTCP; Ki (taurocholate uptake inhibition) versus Km (own transport)): about 100 fold
transport by NTCP (substrate, words) (human NTCP): can transport
serum elimination half-life [3]: several years

O=S(=O)(O)C(F)(F)C(F)(F)C(F)(F)C(F)(F)F [PFBS, perfluorobutane sulfonate]
Km (NTCP): 39.6 µM

O=C(O)C(F)(F)C(F)(F)C(F)(F)C(F)(F)C(F)(F)C(F)(F)C(F)(F)C(F)(F)C(F)(F)F [PFDA, Perfluorodecanoic acid]
IC50 [1]: 9.5 µM
inhibition of NTCP-mediated taurocholate uptake [1]: 60–70%
Ki [2, 6]: 8.3 µM
Vmax of taurocholate uptake [2, 7]: 3.2 (3.0–3.4) nmol/mg·min
Vmax of taurocholate uptake [2, 8]: 2.5 (2.2–3.0) nmol/mg·min
type of inhibition of NTCP-mediated taurocholate uptake [2]: competitive inhibitors
saturation of sodium-dependent uptake (human NTCP; concentration range tested up to 300 mM (so in the source), 1 min): did not reach saturation
transport by NTCP (substrate, words) (human NTCP): can transport

O=C(O)C(F)(F)C(F)(F)C(F)(F)C(F)(F)C(F)(F)C(F)(F)C(F)(F)C(F)(F)C(F)(F)C(F)(F)F [perfluoroundecanoic acid]
statistically significant inhibition of taurocholate uptake [1]: statistically significant inhibitors at 10 μM, but to a lesser extent

O=S(=O)(O)C(F)(F)C(F)(F)C(F)(F)C(F)(F)C(F)(F)C(F)(F)C(F)(F)C(F)(F)F [PFOS, perfluorooctane sulfonate]
Km (NTCP): 130 µM
